US20240287065A1, “COMPOUND AS CDK KINASE INHIBITOR AND USE THEREOF” (TYK MEDICINES (ZHENGZHOU) , INC., priority 2021, published 2024)

Columns and labels:
[1] = test system: HCC1806 cells; assay: Cell proliferation inhibition assay (MTT, 7 days); format: cell-based; conditions: Homo sapiens, HCC1806, 168 h, HCC1086 [sic], 7 days incubation
Procedure, shortened: (§1)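 Cells were seeded per well at 3000 (MCF7, T47D), 2500 (OVCAR3) or 2000 (HCC1806) and attached overnight. Nine 3-fold compound dilutions (10000-1.52 nM before addition to cells, 0.1% DMSO medium) were applied for 7 days, refreshed on day 4, in 4 replicates. MTT (3 h) was read at 570 nm, normalised to DMSO and blank, and IC50 fitted by three-parameter curve.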

[2] = test system: MCF7 cells; assay: Cell proliferation inhibition assay (MTT, 7 days); format: cell-based; conditions: Homo sapiens, 168 h, 7 days incubation
Procedure, shortened: as §1

[3] = test system: OVCAR3 cells; assay: Cell proliferation inhibition assay (MTT, 7 days); format: cell-based; conditions: Homo sapiens, OVCAR-3, 168 h, 7 days incubation
Procedure, shortened: as §1

[4] = test system: T47D cells; assay: Cell proliferation inhibition assay (MTT, 7 days); format: cell-based; conditions: Homo sapiens, 168 h, 7 days incubation
Procedure, shortened: as §1

[5] = test system: xMCF-7/Palbo-R cells; assay: xMCF-7/Palbo-R xenograft tumor model; format: in vivo; conditions: oral tube feeding twice daily for 20 days, Balb/c nude female mice
Protocol: To establish a xenograft tumor model, 1×10^7 xMCF-7/Palbo-R cells were suspended in 0.2 mL of a mixture of Matrigel and […] (1:1) and injected subcutaneously into 6-8 week-old Balb/c nube female mice. Tumor growth was observed periodically, and the volume (volume=½×(length×width 2)) was measured with a vernier caliper. When the tumors grew to an average volume of 100˜150 mm3, the drug was administered to mice (12 days after inoculation) in random groups according to the tumor size and their body weights. […] The drugs were administered by oral tube feeding twice daily for 20 days. Tumor volume and animal weight were measured twice a week and continued until the end of the experiment. Dosing day was defined as day 0. Measurement time points were day 0, day 3, day 7, day 10, day 14, day 17 and day 20. All mice were euthanized by cervical dislocation. At the end of the experiment, tumors were collected and weighed to calculate TGI values (see Table 4).

[6] = test system: MV4-11 cells; assay: MV4-11 xenograft tumor model; format: in vivo; conditions: oral tube feeding twice a day for 15 days, NOD/SCID mice
Protocol: MV-4-11 cells were cultured in IMEM culture medium containing 10% fetal bovine serum. Cells in the exponential growth phase were collected, and the cells were resuspended in PBS to a suitable concentration for subcutaneous tumor inoculation in nude mice.
To establish a xenograft tumor model, 5×10^6 MV4-11 cells were suspended in 0.1 mL of a 1:1 mixture of PBS and Matrigel and injected subcutaneously into the right dorsal side of 6-8-week-old NOD/SCID mice. Tumor growth was observed periodically, and the volume (volume=½×(length×width^2)) was measured with a vernier caliper. When the tumors grew to an average volume of 100˜150 mm^3, the drug was administered to mice (12 days after inoculation) in random groups according to the tumor size and their body weights. […] Among them, the mice in the Vehicle, 10 mg/kg TY-3301, 10 mg/kg C3, and 20 mg/kg C3 groups were administered twice a day by oral tube feeding for 15 days, and the mice in the 20 mg/kg TY-3300 group were administered once a day by oral tube feeding for 15 days. Tumor volume and animal weight were measured twice a week and continued until the end of the experiment. Dosing day was defined as day 0. Measurement time points were day 0, day 3, day 7, day 10, day 14, and day 15. All mice were euthanized by cervical dislocation. At the end of the experiment, tumors were collected and weighed to calculate TGI values (see Table 6).

Row | IC50 [1] [nM] | IC50 [2] [nM] | IC50 [3] [nM] | IC50 [4] [nM] | SMILES | TGI ([5]; 10 mg/kg) [%] | TGI ([5]; 20 mg/kg) [%] | TGI ([6]; 10 mg/kg) [%] | TGI ([6]; 20 mg/kg) [%]
1 | 50 to 5200 | 50 to 5200 | ≤ 50 | 50 to 5200 | C[C@@]1(O)CCC[C@H]1n1c(=O)c(OC(F)F)cc2cnc(NC3CCN(S(C)(=O)=O)CC3)nc21 [Example 3] | 64.4 | 64.6 | 69.5 | 95.3
2 | 50 to 5200 | 50 to 5200 | 50 to 5200 | ≤ 50 | C[C@@]1(O)CCC[C@H]1n1c(=O)c(C(F)F)cc2cnc(NC3CCN(S(C)(=O)=O)CC3)nc21 [PF-06873600, reference compound] | 36.2 | – | 60.9 | –
